Source: PMC12057046, “Elucidation of short linear motif-based interactions of the MIT and rhodanese domains of the ubiquitin-specific protease 8” (Biology Direct, 2025)

System: USP8 MIT domain
Assay: Peptide-phage display-based deep mutational scanning (DMS), USP8 MIT domain
Type: binding, human
Settings: bait USP8_MIT__P40818_1_142; EFCAB12 (Q6NXP0) 2-17; pair of mutant with wild-type wt_00016 (MDDDYEAYHSLFLSLL); sheet S3.B_ProP-PD_pairs
Method: The residues of these 16 amino acid-long wild-type peptides were substituted to all natural amino acid residues, except cysteine, in all positions (Supplementary Table S2A). The designed peptide sequences were reverse-translated to oligonucleotides optimized to the codon usage of E. coli. The required flanking regions (5´[…] and 3´[…]) were added for library construction. The library was generated as previously described.
Four rounds of phage selections were carried out using the second generation human disorderome library or the constructed deep mutational scanning library. At least three individual replicates were used for each bait protein. 10 µg of GST-tagged proteins or GST control (diluted in PBS from the stock of proteins kept in the purification elution buffer) were immobilized in 100 µL PBS on a 96-well MaxiSorp (Nunc) plate overnight at 4 °C. The plates were incubated with blocking buffer (with 0.5% BSA in PBS) for 1 h at 4 °C followed by washing with 0.05% Tween 20 in PBS four times. The naïve phage library (10^11 CFU) was diluted in 1/5th volume PEG/NaCl (20% PEG-8000, 0.4 M NaCl) and 1X PBS, incubated on ice for 10 min and centrifuged at 10,000 [drawing 3] g for 10 min. The pellet was resuspended in the volume of PBS (100 µL/ well). The GST-coated control plate was incubated with 100 µL library per well in PBS for 1 h at 4 °C to remove non-specific binders. The supernatant was transferred to the target wells and incubated for 2 h at 4 °C. The wells were washed five times with 0.05% Tween 20 in PBS and the bound phages were eluted with 100 µL per well log-phase E. coli OmniMAX by incubating at 37° C while shaking. After 30 min, M13KO7 helper phages were added and incubated for an additional 45 min. The bacterial cultures were transferred to 1 mL 2YT supplemented with 100 µg/mL carbenicillin, 30 µg/mL kanamycin and 0.3 mM IPTG and grew overnight at 37 °C while shaking. The following day the cultures were centrifuged for 10 min at 2,000 [drawing 4] g, 4 °C. 1/10th volume of 10 [drawing 5] PBS was added to adjust the pH and heated at 65 °C for 10 min. The phage pools from each round were used as in-phages for the next round of selections.
The samples were prepared for NGS as previously described. Peptide-coding regions of the enriched phage pools were amplified and barcoded using Phusion High-Fidelity PCR Master Mix (Thermo Fisher) for 22 cycles and confirmed by 2% agarose gel electrophoresis. The PCR products were normalized with 25 µL Mag-bind Total Pure NGS beads (Omega Biotek) and 10 µL of each eluted sample (Qiagen Elution Buffer) was pooled and cleaned-up with a PCR purification kit (Qiagen). The PCR product was confirmed by 2% agarose electrophoresis and the band was extracted with QIAquick Gel extraction Kit (Qiagen) and eluted with 30 µL TE buffer. The dsDNA was quantified using QuantiT PicoGreen dsDNA Assay Kit (Thermo Fisher) and sent for NGS (Illumina MiSeq v3, 1 × 150 bp read setup, 20% PhiX, NGI SciLifeLab facility, Sweden). The NGS data were demultiplexed, adapter regions were trimmed and sequences with an average quality of at least 20 were translated to peptide sequences. The NGS data were analysed using custom Python scripts. The total read NGS counts for each selection experiment of each peptide sequence were compiled and annotated in PepTools (https://slim.icr.ac.uk/tools/peptools/). Since ProP-PD is in essence a competition assay, the possibility of the input phage library influencing the selection outcome was explored. For this, the Pearson correlation coefficient, p-value and coefficient of determination were calculated for all peptide NGS count fractions in the library coverage vs. in the selections results (Supplementary Fig. S7; Supplementary Table S2B; Supplementary Table S3B; Supplementary Table S7B). Pearson correlation coefficient and p-value were calculated using Python’s SciPy library. […]

Point of comparison: MDDDYERYHSLFLSLL [mut_04441], hit_pair_ratio 84.82. Against it:
- MHDDYEAYHSLFLSLL [mut_04343] — higher, 337.92
- MYDDYEAYHSLFLSLL [mut_04356] — lower, 67.58
- MDDDYQAYHSLFLSLL [mut_04422] — lower, 12.11
- FDDDYEAYHSLFLSLL [mut_04324] — higher, 112.64
- GDDDYEAYHSLFLSLL [mut_04325] — lower, 7.04
- MDDFYEAYHSLFLSLL [mut_04377] — higher, 337.92
- YDDDYEAYHSLFLSLL [mut_04338] — lower, 1.04
- MDFDYEAYHSLFLSLL [mut_04359] — higher, 112.94
- MDDDYTAYHSLFLSLL [mut_04425] — lower, 48.27
- MDDWYEAYHSLFLSLL [mut_04391] — lower, 51.65
- MDDNYEAYHSLFLSLL [mut_04384] — lower, 33.79
- MDDDHEAYHSLFLSLL [mut_04398] — higher, 169.63
- MDDDWEAYHSLFLSLL [mut_04410] — lower, 56.54
- MPDDYEAYHSLFLSLL [mut_04349] — higher, 168.96
- MDDDYGAYHSLFLSLL [mut_04414] — lower, 33.85
- MDNDYEAYHSLFLSLL [mut_04366] — lower, 19.88
- MDDDYEGYHSLFLSLL [mut_04432] — lower, 1.19
- MDDDYNAYHSLFLSLL [mut_04420] — lower, 2.54
- MDDTYEAYHSLFLSLL [mut_04389] — lower, 15.92
- MDDDYEDYHSLFLSLL [mut_04429] — lower, 4.40
- MFDDYEAYHSLFLSLL [mut_04341] — lower, 4.97
- DDDDYEAYHSLFLSLL [mut_04322] — lower, 1.56
- MNDDYEAYHSLFLSLL [mut_04348] — lower, 14.75
- MDDKYEAYHSLFLSLL [mut_04381] — the same, 84.82
- ADDDYEAYHSLFLSLL [mut_04321] — higher, 112.64
- MDIDYEAYHSLFLSLL [mut_04362] — higher, 337.92
- MDDDYEKYHSLFLSLL [mut_04435] — lower, 48.44
- MDEDYEAYHSLFLSLL [mut_04358] — lower, 3.08
- VDDDYEAYHSLFLSLL [mut_04336] — lower, 42.24
- MDPDYEAYHSLFLSLL [mut_04367] — higher, 337.92
- MLDDYEAYHSLFLSLL [mut_04346] — lower, 33.93
- TDDDYEAYHSLFLSLL [mut_04335] — lower, 30.76
- MDDDYEQYHSLFLSLL [mut_04440] — higher, 112.94
- MDDDYIAYHSLFLSLL [mut_04416] — lower, 56.54
- MDDDYFAYHSLFLSLL [mut_04413] — higher, 168.96
- MDVDYEAYHSLFLSLL [mut_04372] — lower, 7.68
- MIDDYEAYHSLFLSLL [mut_04344] — higher, 337.92
- MDADYEAYHSLFLSLL [mut_04357] — lower, 1.08

Same assay, conditions: bait USP8_MIT__P40818_1_142; MLPH 482-497; ratio of averaged fractions of wild-type/mutant peptide pair, larger over smaller (direction to be read from the two fractions)

Point of comparison: SEVSDIEGRIAALRAA, hit_pair_ratio 2.60. Against it:
- SEVSDIESRIAVLRAA — the same, 2.60
- SEYSDIESRIAALRAA — lower, 1.74
- SEVWDIESRIAALRAA — lower, 1.49
- SEVSDIESRIAALLAA — higher, 9.42
- SEVSDIESRIAELRAA — lower, 1.95
- SEVIDIESRIAALRAA — higher, 6.39
- SEVSDIESRIEALRAA — lower, 2.26
- SEVSDIEDRIAALRAA — higher, 4.82
- SEVSDIESRISALRAA — lower, 1.49
- SEVSDIESRIAALRAY — lower, 1.28
- SEVSDIESRIAAWRAA — the same, 2.60
- SEVSDYESRIAALRAA — lower, 2.23
- SEVSDIESRIKALRAA — higher, 3.89
- SEVSDIESRIDALRAA — higher, 7.79
- SEVSYIESRIAALRAA — higher, 7.79
- SEVSDIESRFAALRAA — higher, 9.56
- SEVSDIESRINALRAA — higher, 7.79
- SEVSDDESRIAALRAA — higher, 7.79
- SEVGDIESRIAALRAA — lower, 2.28
- SEWSDIESRIAALRAA — lower, 1.11
- SEVSDIESRIAALRYA — higher, 7.79
- SEVSDIESRIAALVAA — higher, 18.10
- SEVSDIEERIAALRAA — higher, 7.79
- SEVRDIESRIAALRAA — higher, 4.05
- SEVSDIESRIAALHAA — lower, 1.15
- SEVHDIESRIAALRAA — higher, 28.09

Same assay, conditions: sheet S3.B_ProP-PD_pairs; bait USP8_MIT__P40818_1_142; ratio within the wild-type/mutant pair, larger over smaller averaged fraction (direction from fraction_wt and fraction_mut)

Point of comparison: TEVSDIESRIAALRAA, hit_pair_ratio 6.74. Against it:
- MDDDYEAYHKLFLSLL — higher, 169.63
- MDDDYEAYDSLFLSLL — higher, 337.92
- MDDDYEAYHSLFLSLI — higher, 168.96
- SKVSDIESRIAALRAA — lower, 3.89
- MDDDYEAIHSLFLSLL — higher, 132.20
- MDDDYEAYISLFLSLL — higher, 13.00
- MDDDYEAYHSLFLSHL — higher, 84.48
- MDDDYEAYHSHFLSLL — higher, 24.22
- MDDDYEATHSLFLSLL — higher, 17.79
- MDDDYEAYHSLFLSGL — higher, 337.92
- MDDDYEAYHHLFLSLL — higher, 11.27
- MDDDYEAWHSLFLSLL — lower, 1.40
- MDDDYEAYHALFLSLL — higher, 168.96
- MDDDYEAYLSLFLSLL — higher, 22.58
- MDDDYEAYHSLFLSQL — higher, 337.92
- PEVSDIESRIAALRAA — higher, 7.79
- SELSDIESRIAALRAA — higher, 11.85
- SSVSDIESRIAALRAA — higher, 24.28
- MDDDYEAYHELFLSLL — higher, 112.94
- SVVSDIESRIAALRAA — lower, 2.60
- MDDDYEAYHYLFLSLL — lower, 1.94
- MDDDYEAYHSGFLSLL — higher, 337.92
- MDDDYEAYHSIFLSLL — higher, 10.94
- MDDDYEAYHVLFLSLL — higher, 37.55
- MDDDYEAYHSLFLFLL — lower, 5.36
- MDDDYEAFHSLFLSLL — higher, 25.99
- MDDDYEAYKSLFLSLL — higher, 84.48
- MDDDYEAYHSLSLSLL — higher, 337.92
- MDDDYEAYHSNFLSLL — higher, 168.96
- MDDDYEAYHDLFLSLL — higher, 11.69
- MDDDYEAYHSLFLSAL — higher, 337.92
- MDDDYEAYASLFLSLL — lower, 5.54
- MDDDYEALHSLFLSLL — higher, 56.39
- MDDDYEAYHSLFLSSL — higher, 337.92
- MDDDYEAYHSLFLTLL — lower, 2.44
- MDDDYEAYHSLFLSLK — higher, 19.88
- SEGSDIESRIAALRAA — higher, 7.79
- MEVSDIESRIAALRAA — lower, 2.60
- MDDDYEAYHMLFLSLL — higher, 7.51
- SPVSDIESRIAALRAA — lower, 1.56
- SYVSDIESRIAALRAA — lower, 1.00
- MDDDYEAYHSLFLHLL — lower, 2.92
- MDDDYEASHSLFLSLL — higher, 112.64
- MDDDYEAYHRLFLSLL — higher, 41.80
- YEVSDIESRIAALRAA — lower, 4.18
- SNVSDIESRIAALRAA — lower, 1.35
- MDDDYEAYHSLFGSLL — higher, 337.92
- SDVSDIESRIAALRAA — higher, 11.31
- MDDDYEAYHSLFLSPL — higher, 33.79
